Data: PubChem BioAssay AID493146 (Sanford-Burnham Center for Chemical Genomics, 2011)
pEC50: −log10 of the molar value. Activity calls are given as the source filed them. No rule for the calls is given here.

Target: intestinal alkaline phosphatase (Alpi), Mus musculus
Test: activators of mouse IAP enzyme, SAR follow-up, biochemical, luminescence (AID 493146)
Settings: purified mouse IAP, luminescent substrate, activation

Structure (SMILES)	EC50	pEC50
O=C(CN1C(=O)/C(=C/c2ccco2)SC1=S)Nc1ccc(C(=O)O)c(O)c1	> 100 µM (inactive)	
COc1cc(C(=O)NN=Cc2ccccn2)cc(OC)c1OC	> 100 µM (inactive)	
CCOc1ccc2nc(NC(=O)CN(C)S(=O)(=O)c3ccc4[nH]c(=O)oc4c3)sc2c1	> 100 µM (inactive)	
O=C(CCN1C(=O)/C(=C/c2ccco2)SC1=S)Nc1ccc(O)cc1C(=O)O	> 100 µM (inactive)	
COc1ccc(CNC(=O)CSc2sc3c(O)cc(=O)[nH]c3c2C#N)cc1	> 100 µM (inactive)	
O=C(CN1C(=O)/C(=C\c2ccco2)SC1=S)Nc1ccc(C(=O)O)cc1	> 100 µM (inactive)	
CCOc1ccccc1CNC(=O)CCNS(=O)(=O)c1ccc2[nH]c(=O)oc2c1	> 100 µM (inactive)	
COc1cc(C(=O)NNC(=S)NC(=O)c2ccc(Cl)cc2)cc(OC)c1OC	> 100 µM (inactive)	
O=C(N/N=C/c1ccc(F)cc1)c1cc(O)c(O)c(O)c1	> 100 µM (inactive)	
S=C(NCCC(c1ccccc1)c1ccccc1)Nc1ccc(Cl)cc1Cl		5.15
COc1cccc(NC(=O)CN(C)S(=O)(=O)c2ccc3[nH]c(=O)oc3c2)c1	> 100 µM (inactive)	
CN(C(=O)CN1C(=O)/C(=C\c2ccco2)SC1=S)C1CCS(=O)(=O)C1 (configuration not stated)	> 100 µM (inactive)	
CCN(C(=O)C(C)N1C(=O)/C(=C/c2ccco2)SC1=S)C1CCS(=O)(=O)C1 (configuration not stated)	> 100 µM (inactive)	
Cc1ccc(NC(=O)CCNS(=O)(=O)c2ccc3[nH]c(=O)oc3c2)cc1F	> 100 µM (inactive)	
COc1ccccc1CNC(=O)CCNS(=O)(=O)c1ccc2[nH]c(=O)oc2c1	> 100 µM (inactive)	
CCN(CC)C(=O)CSc1sc2c(O)cc(=O)[nH]c2c1C#N	> 100 µM (inactive)	
COc1ccc(CNC(=O)CSc2sc3c(O)cc(=O)[nH]c3c2C#N)cc1OC	> 100 µM (inactive)	
N#Cc1c(SCC(=O)Nc2nc3ccccc3s2)sc2c(O)cc(=O)[nH]c12	> 100 µM (inactive)	
O=C(NN=Cc1cccnc1)c1cc(O)c(O)c(O)c1	> 100 µM (inactive)	
CCc1ccc(NC(=O)CN(C)S(=O)(=O)c2ccc3[nH]c(=O)oc3c2)cc1	> 100 µM (inactive)	
O=C(N/N=C/c1ccco1)c1cc(O)c(O)c(O)c1	> 100 µM (inactive)	
O=C(CCCN1C(=O)/C(=C\c2ccco2)SC1=S)Nc1ccc(O)cc1C(=O)O	> 100 µM (inactive)	
N#Cc1c(SCC(=O)Nc2cccc(F)c2)sc2c(O)cc(=O)[nH]c12	> 100 µM (inactive)	

Structure (SMILES)	EC50	pEC50
CC(C(=O)Nc1ccc(C(=O)O)c(O)c1)N1C(=O)/C(=C\c2ccco2)SC1=S (configuration not stated)	> 100 µM (inactive)	
CN1CCC(=NNC(=O)c2cc(O)c(O)c(O)c2)CC1	> 100 µM (inactive)	
COc1ccc(NC(=S)NCCC(c2ccccc2)c2ccccc2)cc1		4.42
N#Cc1c(SCC(=O)Nc2ccccc2C(F)(F)F)sc2c(O)cc(=O)[nH]c12	> 100 µM (inactive)	
O=C(CN1C(=O)/C(=C/c2ccco2)SC1=S)NC1CCS(=O)(=O)C1 (configuration not stated)	> 100 µM (inactive)	
O=C1/C(=C/c2ccco2)SC(=S)N1C1CCS(=O)(=O)C1 (configuration not stated)	> 100 µM (inactive)	
O=C(O)CC(C(=O)O)N1C(=O)/C(=C/c2ccc(-c3nc4ccccc4s3)o2)SC1=S (configuration not stated)	> 100 µM (inactive)	
CC(C(=O)N(C)C1CCS(=O)(=O)C1)N1C(=O)/C(=C/c2ccco2)SC1=S (configuration not stated)	> 100 µM (inactive)	
O=C(CN1C(=O)/C(=C/c2ccco2)SC1=S)Nc1ccc2nccnc2c1	> 100 µM (inactive)	
O=C(NNC(=O)c1cc(O)c(O)c(O)c1)NC1CCCCC1	> 100 µM (inactive)	
COc1cc(Cl)c(C)cc1NC(=O)CSc1sc2c(O)cc(=O)[nH]c2c1C#N	> 100 µM (inactive)	
O=C(CCCN1C(=O)/C(=C/c2ccco2)SC1=S)Nc1ccccc1	> 100 µM (inactive)	
Cc1ccc(NC(=O)CSc2sc3c(O)cc(=O)[nH]c3c2C#N)c(F)c1	> 100 µM (inactive)	
O=C(CN1C(=O)/C(=C\c2ccco2)SC1=S)Nc1ccc(O)cc1C(=O)O	> 100 µM (inactive)	
COc1cc(C(=O)NNc2nc3cc4c(cc3s2)OCO4)cc(OC)c1OC	> 100 µM (inactive)	
COc1ccccc1NC(=O)CSc1sc2c(O)cc(=O)[nH]c2c1C#N	> 100 µM (inactive)	
CCc1nnc(NC(=O)CSc2sc3c(O)cc(=O)[nH]c3c2C#N)s1	> 100 µM (inactive)	
N#Cc1c(SCC(=O)NCc2ccc3c(c2)OCO3)sc2c(O)cc(=O)[nH]c12	> 100 µM (inactive)	
O=C(CN1C(=O)/C(=C\c2ccco2)SC1=S)Nc1cccc(C(=O)O)c1	> 100 µM (inactive)	
COc1cc(C(=O)NNC(=S)NC(=O)c2ccccc2C)cc(OC)c1OC	> 100 µM (inactive)	
CC(C)C(C(=O)NC1CCS(=O)(=O)C1)N1C(=O)/C(=C\c2ccco2)SC1=S (configuration not stated)	> 100 µM (inactive)	
COc1ccc(NC(=O)CSc2sc3c(O)cc(=O)[nH]c3c2C#N)c(OC)c1	> 100 µM (inactive)	
C/C(=N\NC(=O)c1cc(O)c(O)c(O)c1)c1ccncc1	> 100 µM (inactive)	

Structure (SMILES)	EC50	pEC50
CC(C)N1CCC(=NNC(=O)c2cc(O)c(O)c(O)c2)CC1	> 100 µM (inactive)	
COc1cc(C(=O)NNC(=O)c2n[nH]c3ccccc23)cc(OC)c1OC	> 100 µM (inactive)	
CC(C)NC(=O)CSc1sc2c(O)cc(=O)[nH]c2c1C#N	> 100 µM (inactive)	
O=C(N/N=C/c1ccccc1F)c1cc(O)c(O)c(O)c1	> 100 µM (inactive)	
COc1ccc(OC)c(NC(=O)CCNS(=O)(=O)c2ccc3[nH]c(=O)oc3c2)c1	> 100 µM (inactive)	
O=C(N/N=C/c1ccsc1)c1cc(O)c(O)c(O)c1	> 100 µM (inactive)	
CC(C(=O)Nc1ccccc1C(=O)O)N1C(=O)/C(=C\c2ccco2)SC1=S (configuration not stated)	> 100 µM (inactive)	
Cc1cc(=O)oc2cc(NC(=S)NCCC(c3ccccc3)c3ccccc3)ccc12	> 100 µM (inactive)	
COc1ccc(NC(=O)C(CC(C)C)NS(=O)(=O)c2ccc3[nH]c(=O)oc3c2)cc1 (configuration not stated)	> 100 µM (inactive)	
O=C(CN1C(=O)/C(=C\c2ccco2)SC1=S)Nc1ccccc1C(=O)O	> 100 µM (inactive)	
O=S(=O)(Nc1ncccn1)c1ccc(NC(=S)NCCC(c2ccccc2)c2ccccc2)cc1	> 100 µM (inactive)	
O=C(N/N=C/C1CC=CCC1)c1cc(O)c(O)c(O)c1 (configuration not stated)	> 100 µM (inactive)	
COc1cc(C(=O)NNC(=O)C2CC2)cc(OC)c1OC	> 100 µM (inactive)	
COc1ccc(OC)c(NC(=O)CSc2sc3c(O)cc(=O)[nH]c3c2C#N)c1	> 100 µM (inactive)	
CCOC(=O)NC(=O)CSc1sc2c(O)cc(=O)[nH]c2c1C#N	> 100 µM (inactive)	
CCOc1cccc(NC(=O)CSc2sc3c(O)cc(=O)[nH]c3c2C#N)c1	> 100 µM (inactive)	
O=C(CCN1C(=O)/C(=C\c2ccco2)SC1=S)Nc1ccc(C(=O)O)c(O)c1	> 100 µM (inactive)	
N#Cc1c(SCC(=O)Nc2nc3ccc(Br)cc3s2)sc2c(O)cc(=O)[nH]c12	> 100 µM (inactive)	
Cc1ccc(NC(=O)CCNS(=O)(=O)c2ccc3[nH]c(=O)oc3c2)cc1N(C)C	> 100 µM (inactive)	
O=C(CN1C(=O)/C(=C/c2ccco2)SC1=S)N[C@@H]1CSC[C@@H]1O	> 100 µM (inactive)	
Cc1ccc(Cl)cc1NC(=O)CSc1sc2c(O)cc(=O)[nH]c2c1C#N	> 100 µM (inactive)	
CCN(C(=O)CN1C(=O)/C(=C\c2ccco2)SC1=S)C1CCS(=O)(=O)C1 (configuration not stated)	> 100 µM (inactive)	
CCOC(=O)N1CCN(S(=O)(=O)c2ccc3[nH]c(=O)oc3c2)CC1	> 100 µM (inactive)	

Structure (SMILES)	EC50	pEC50
COc1cccc(/C=N/NC(=O)c2cc(O)c(O)c(O)c2)c1	> 100 µM (inactive)	
CC(C(=O)NCCc1ccc(O)c(O)c1)N1C(=O)/C(=C\c2ccco2)SC1=S (configuration not stated)	> 100 µM (inactive)	
CSc1cccc(NC(=O)CCNS(=O)(=O)c2ccc3[nH]c(=O)oc3c2)c1	> 100 µM (inactive)	
CC(C(=O)Nc1ccc(C(=O)O)cc1)N1C(=O)/C(=C\c2ccco2)SC1=S (configuration not stated)	> 100 µM (inactive)	
COc1cc([N+](=O)[O-])ccc1NC(=S)NCCC(c1ccccc1)c1ccccc1	> 100 µM (inactive)	
COc1ccccc1NC(=O)CCNS(=O)(=O)c1ccc2[nH]c(=O)oc2c1	> 100 µM (inactive)	
Cc1ccc(NC(=O)CCNS(=O)(=O)c2ccc3[nH]c(=O)oc3c2)cc1	> 100 µM (inactive)	
COC(=O)c1ccc(C)c(NC(=O)CSc2sc3c(O)cc(=O)[nH]c3c2C#N)c1	> 100 µM (inactive)	
O=C(CN1C(=O)/C(=C/c2ccco2)SC1=S)Nc1ccc(C(=O)O)cc1	> 100 µM (inactive)	
CCSc1nnc(NC(=O)CSc2sc3c(O)cc(=O)[nH]c3c2C#N)s1	> 100 µM (inactive)	
COc1ccc(Cl)cc1NC(=O)CSc1sc2c(O)cc(=O)[nH]c2c1C#N	> 100 µM (inactive)	
Cc1csc(NC(=O)CSc2sc3c(O)cc(=O)[nH]c3c2C#N)n1	> 100 µM (inactive)	
O=C(CN1C(=O)/C(=C/c2ccco2)SC1=S)NC1C=CS(=O)(=O)C1 (configuration not stated)	> 100 µM (inactive)	
NS(=O)(=O)c1ccc(-c2ccc(/C=C3\SC(=S)N(C4CCS(=O)(=O)C4)C3=O)o2)cc1 (configuration not stated)	> 100 µM (inactive)	
N#Cc1cccc(NC(=O)CCNS(=O)(=O)c2ccc3[nH]c(=O)oc3c2)c1	> 100 µM (inactive)	
Cc1cc(NC(=O)CSc2sc3c(O)cc(=O)[nH]c3c2C#N)ccc1Br	> 100 µM (inactive)	
O=C(CN1C(=O)/C(=C/c2ccco2)SC1=S)Nc1ccc(O)c(C(=O)O)c1	> 100 µM (inactive)	
N#Cc1cccc(NC(=O)CSc2sc3c(O)cc(=O)[nH]c3c2C#N)c1	> 100 µM (inactive)	
CCOC(=O)N1CCC(NC(=O)CSc2sc3c(O)cc(=O)[nH]c3c2C#N)CC1	> 100 µM (inactive)	
O=C(CCNS(=O)(=O)c1ccc2[nH]c(=O)oc2c1)Nc1ccccc1	> 100 µM (inactive)	
O=C(CN1C(=O)/C(=C/c2ccco2)SC1=S)Nc1cccc(C(=O)O)c1	> 100 µM (inactive)	
O=C(N/N=C/C1CC2CCC1C2)c1cc(O)c(O)c(O)c1 (configuration not stated)	> 100 µM (inactive)	
FC(F)(F)c1cccc(NC(=S)NCCC(c2ccccc2)c2ccccc2)c1		4.08
